Test results published in patent US7393818B2 (priority 2003, dated 2008).

Legend:
prions = conditions: reported in literature; cited from earlier work
[1] = biological target: Scrapie (sheep) prion protein (Ovis aries, UniProt P23907)
Chain of Scrapie (sheep) prion protein (P23907 25-233 limits assumed): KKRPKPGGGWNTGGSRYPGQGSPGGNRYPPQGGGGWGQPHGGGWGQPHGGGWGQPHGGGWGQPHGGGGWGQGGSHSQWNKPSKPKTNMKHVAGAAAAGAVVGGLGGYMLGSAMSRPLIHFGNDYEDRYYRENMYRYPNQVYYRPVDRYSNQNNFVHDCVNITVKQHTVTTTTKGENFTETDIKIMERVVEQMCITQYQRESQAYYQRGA

Row | SMILES | effectiveness against prions (prions) | effect on the percentage of samples showing presence of prion ([1]; in the period of the test (one hour soak)) | Percentage of Samples Tested where Prion (Scrapie) is Detected ([1]; wires soaked for one hour)
1 | O=CCCCC=O [Glutaraldehyde] | ineffective |  | 
2 | OO [7% Hydrogen Peroxide, hydrogen peroxide] |  | no effect | 100%
3 | C1CO1 [ethylene oxide] | ineffective |  | 
4 | OO [hydrogen peroxide] | ineffective |  | 
